In paper PMC4288171, “Meclofenamic acid selectively inhibits FTO demethylation of m^6A over ALKBH5” (Nucleic Acids Research, 2014) one finds IC50 data, which are given here for one compound.

This assay deals with T1, FTO (Homo sapiens, UniProt Q9C0B1).
T1 construct: FTOΔN31 (His-tag human FTO with N-terminal 31 residues truncated)
The assay can be described thus: crystal structure at […] Å; DSF shift; FP displacement (IC50 […]); IC50 from HPLC demethylation assay on ssDNA. It counts as biochemical.

pIC50: −log10 of the molar value.

T1 sequence (Q9C0B1 32-505): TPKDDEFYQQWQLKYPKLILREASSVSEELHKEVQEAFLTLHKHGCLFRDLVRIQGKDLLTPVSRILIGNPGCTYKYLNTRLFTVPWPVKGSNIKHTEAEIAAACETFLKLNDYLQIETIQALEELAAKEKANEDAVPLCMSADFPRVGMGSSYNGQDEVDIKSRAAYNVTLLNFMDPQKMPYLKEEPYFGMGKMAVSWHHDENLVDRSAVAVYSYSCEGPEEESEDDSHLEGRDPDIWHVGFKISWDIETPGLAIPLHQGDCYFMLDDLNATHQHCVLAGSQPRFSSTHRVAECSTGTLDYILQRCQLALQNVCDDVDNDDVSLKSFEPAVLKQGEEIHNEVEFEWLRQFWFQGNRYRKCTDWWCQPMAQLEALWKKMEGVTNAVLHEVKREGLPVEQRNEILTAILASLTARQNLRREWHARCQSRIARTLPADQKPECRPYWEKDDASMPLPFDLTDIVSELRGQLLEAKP

Regarding `Cc1ccc(Cl)c(Nc2ccccc2C(=O)O)c1Cl` [MA, meclofenamic acid], the pIC50 was 5.15.
